From patent EP4567031A1, “HPK1 INHIBITOR, PREPARATION METHOD THEREFOR, AND USE THEREOF” (Beijing Earthwise Technology Co., Ltd., priority 2022, dated 2024)

Each compound was assayed on human Pan T cells (assay: Human Pan T cell IL-2 ELISA). Conditions: Anti-CD3 and Anti-CD28, 48 hours, supernatant IL-2 ELISA, read-out: IL-2 release, EC50.
Assay type: cell-based
Method: A compound was dissolved in DMSO to 10 mM, and then diluted three-fold with DMSO to 9 dosages in a 96-well plate. Then, 10 µL of the diluted compound sample was transferred to a 96-well plate with 90 µL of cell culture medium, and the plate was shaken for 5 minutes. Then, 5 µL of the diluted compound sample was transferred to a 96-well plate with 120 µL of cell culture medium, and the plate was shaken for 5 minutes. According to the experimental design diagram, 50 µL of the diluted compound sample was transferred to a cell plate. Final concentrations of the compound in this assay were 10000.00, 5000, 2500, 1250, 625, 312.5, 156.25, 78.125 and 39.063 nM.
The assay was conducted in a 96-well plate. On the first day of the assay, Anti-CD3 was added to the 96-well plate and incubated in a 4 °C refrigerator overnight. On the second day of the assay, human Pan T cells were recovered, centrifuged and counted. The cell density was adjusted to 1*10^6 cells/ml. Then, 100 µL of cells were added to the 96-well plate washed with PBS and added with Anti-CD3; according to the experimental design diagram, 50 µL of diluted Anti-CD28 and 50 µL of the diluted compound were added to each well, centrifuged, and the cell plate was placed and incubated in an incubator for 48 hours; after 48 hours, the plate was centrifuged and the supernatant was collected for IL-2 ELISA.
The signal value of light absorption was converted into a multiple. Multiple = sample value/the average value of control wells. The average value of control wells refers to the value measured in wells with DMSO added. EC50 values were calculated by XLFit (version 5.3.1.3) in Excel. Equation: Y=Bottom + (Top-Bottom) / (1 + (EC50/X) ^ HillSlope). Table 6. Results of cellular activity of the compounds

With `COC1CCCn2c(-c3cc4c(c5c3CNC5=O)Nc3ccc(N5CCOCC5C)cc3C4(C)C)cnc21` (single isomer, unassigned) [Example 180] as the compound, how does the EC50 read?
The EC50 was 0.027 µM.

Which EC50 does the source give for `COC1CCCn2c(-c3cc4c(c5c3CNC5=O)Nc3ccc(N5CCOCC5C)cc3C4(C)C)cnc21` (single isomer, unassigned) [Example 181] here?
Its EC50 is 0.026 µM.

For `Cn1c(-c2cc3c(c4c2CNC4=O)Nc2ccc(N4CCOCC4)cc2C3(C)C)cnc1C1CCCO1` (single isomer, unassigned) [Example 191], which EC50 is on record?
Its EC50 is 0.028 µM.

Which EC50 does the source give for `COC1CCc2c(-c3cc4c(c5c3CNC5=O)Nc3ccc(N5CCOCC5)cc3C4(C)C)cncc21` (single isomer, unassigned) [Example 202] here?
Its EC50 is 0.0087 µM.

`COC1CCc2c(-c3cc4c(c5c3CNC5=O)Nc3ccc(N5CCOCC5)cc3C4(C)C)cncc21` (single isomer, unassigned) [Example 203] was tested. Which EC50 did it give?
Its EC50 is 0.095 µM.

With `CCC1(C)c2cc(N3CCOCC3)ccc2Nc2c1cc(-c1cnc3c(OC)nccn13)c1c2C(=O)NC1` (single isomer, unassigned) [Example 213] as the compound, how does the EC50 read?
The EC50 was 0.019 µM.

How did the EC50 turn out when `CC1CCCn2c(-c3cc4c(c5c3CNC5=O)Nc3ccc(N5CCOCC5)cc3C4(C)C)cnc21` (single isomer, unassigned) [Example 218] was run?
The EC50 was 0.019 µM.

With `CC1CCCn2c(-c3cc4c(c5c3CNC5=O)Nc3ccc(N5CCOCC5)cc3C4(C)C)cnc21` (single isomer, unassigned) [Example 219] as the compound, how does the EC50 read?
The EC50 was 0.0081 µM.

For `CC1(C)c2cc(N3CCOCC3)ccc2Nc2c1cc(-c1cnc3n1CCCC3O)c1c2C(=O)NC1` (single isomer, unassigned) [Example 228], which EC50 is on record?
The EC50 was 0.011 µM.

With `COC1CCn2c(-c3cc4c(c5c3CNC5=O)Nc3ccc(N5CCOCC5)cc3C4(C)C)cnc21` (single isomer, unassigned) [Example 230] as the compound, how does the EC50 read?
The EC50 was 0.0076 µM.

Which EC50 does the source give for `CC1(C)c2cc(N3CCOCC3)ccc2Nc2c1cc(-c1cnc3n1CCC(C(F)F)C3)c1c2C(=O)NC1` (single isomer, unassigned) [Example 239] here?
The EC50 was 0.0075 µM.

With `CC1(C)c2cc(N3CCOCC3)ccc2Nc2c1cc(-c1cnc3n1CCC(C(F)F)C3)c1c2C(=O)NC1` (single isomer, unassigned) [Example 240] as the compound, how does the EC50 read?
The EC50 was 0.026 µM.

Same assay, conditions: Homo sapiens, T-cell, 48 h, Anti-CD3 and Anti-CD28, supernatant IL-2 ELISA, read-out: IL-2 release, EC50

For `COC1CCCn2c(-c3cc4c(c5c3CNC5=O)Nc3cc(C)c(N5CCOCC5)cc3C4(C)C)cnc21` (single isomer, unassigned) [Example 150], which EC50 is on record?
Its EC50 is 0.0306 µM.

How did the EC50 turn out when `CCOc1ccc2c(-c3cc4c(c5c3CNC5=O)Nc3ccc(N5CCOC(C(C)(C)O)C5)cc3C4(C)C)cnn2c1` (single isomer, unassigned) [Example 151] was run?
The EC50 was 0.0688 µM.

With `COC1CCCn2c(-c3cc4c(c5c3CNC5=O)Nc3ccc(N5C6CCC5COC6)cc3C4(C)C)cnc21` (single isomer, unassigned) [Example 152] as the compound, how does the EC50 read?
The EC50 was 0.0346 µM.

For `Cn1c(-c2cc3c(c4c2CNC4=O)Nc2ccc(N4CCOC(C(C)(C)O)C4)cc2C3(C)C)cnc1OC1CCOC1` (single isomer, unassigned) [Example 153], which EC50 is on record?
The EC50 was 0.0468 µM.

With `CC1(C)c2cc(N3CCOC(C(C)(C)O)C3)ccc2Nc2c1cc(-c1cnn3cc(Cl)ccc13)c1c2C(=O)NC1` (single isomer, unassigned) [Example 154] as the compound, how does the EC50 read?
The EC50 was 0.00735 µM.

With `COC1CCCn2c(-c3cc4c(c5c3CNC5=O)Nc3ccc(N5CCOCC5C)cc3C4(C)C)cnc21` (single isomer, unassigned) [Example 155] as the compound, how does the EC50 read?
Its EC50 is 0.0266 µM.

Which EC50 does the source give for `COc1ccc2c(-c3cc4c(c5c3CNC5=O)Nc3ccc(N5CCOC(C(C)(C)O)C5)cc3C4(C)C)cnn2c1` (single isomer, unassigned) [Example 157] here?
The EC50 was 0.00647 µM.

`COC1CCCn2c(-c3cc4c(c5c3CNC5=O)Nc3ccc(N5CCCOCC5)cc3C4(C)C)cnc21` (single isomer, unassigned) [Example 158] was tested. Which EC50 did it give?
The EC50 was 0.0376 µM.

`CCC1(C)c2cc(N3CCOCC3)ccc2Nc2c1cc(-c1cnc3n1CCCC3OC)c1c2C(=O)NC1` (single isomer, unassigned) [Example 159] was tested. Which EC50 did it give?
The EC50 was 0.0236 µM.

How did the EC50 turn out when `Cc1ccn2c(-c3cc4c(c5c3CNC5=O)Nc3ccc(N5CCOC(C(C)(C)O)C5)cc3C4(C)C)cnc2n1` (single isomer, unassigned) [Example 162] was run?
Its EC50 is 0.00633 µM.

For `COC1CCCn2c(-c3cc4c(c5c3CNC5=O)Nc3ccc(C5CCOCC5)cc3C4(C)C)cnc21` (single isomer, unassigned) [Example 163], which EC50 is on record?
Its EC50 is 0.025 µM.

Which EC50 does the source give for `COC1CCCn2c(-c3cc4c(c5c3CNC5=O)Nc3cc(C#N)c(N5CCOCC5)cc3C4(C)C)cnc21` (single isomer, unassigned) [Example 175] here?
Its EC50 is 0.014 µM.

For `COC1CCCc2c(-c3cc4c(c5c3CNC5=O)Nc3ccc(N5CCOCC5)cc3C4(C)C)cnn21` (single isomer, unassigned) [Example 177], which EC50 is on record?
Its EC50 is 0.025 µM.

For `COC1CCCn2c(-c3cc4c(c5c3CNC5=O)Nc3c(F)cc(N5CCOCC5)cc3C4(C)C)cnc21` (single isomer, unassigned) [Example 178], which EC50 is on record?
The EC50 was 0.019 µM.

With `COc1cc2c(cc1N1CCOCC1)C(C)(C)c1cc(-c3cnc4n3CCCC4OC)c3c(c1N2)C(=O)NC3` (single isomer, unassigned) [Example 182] as the compound, how does the EC50 read?
Its EC50 is 0.02 µM.

Which EC50 does the source give for `CC1(C)c2cc(N3CCOCC3)ccc2Nc2c1cc(-c1cnc3n1CCCC3OC1CC1)c1c2C(=O)NC1` (single isomer, unassigned) [Example 187] here?
Its EC50 is 0.015 µM.

Which EC50 does the source give for `Cn1c(-c2cc3c(c4c2CNC4=O)Nc2ccc(N4CCOCC4)cc2C3(C)C)cnc1C1CCCO1` (single isomer, unassigned) [Example 190] here?
Its EC50 is 0.053 µM.

How did the EC50 turn out when `CCC1(C)c2cc(N3CCOCC3)ccc2Nc2c1cc(-c1cnc3c(OC)nccn13)c1c2C(=O)NC1` (single isomer, unassigned) [Example 212] was run?
The EC50 was 0.011 µM.

Which EC50 does the source give for `CC1(C)c2cc(N3CCOCC3)ccc2Nc2c1cc(-c1cnc3n1CCCC3OC1COC1)c1c2C(=O)NC1` (single isomer, unassigned) [Example 220] here?
The EC50 was 0.05 µM.

With `CC1(C)c2cc(N3CCOCC3)ccc2Nc2c1cc(-c1cnc3n1CCCC3O)c1c2C(=O)NC1` (single isomer, unassigned) [Example 227] as the compound, how does the EC50 read?
The EC50 was 0.0064 µM.

For `COC1CCn2c(-c3cc4c(c5c3CNC5=O)Nc3ccc(N5CCOCC5)cc3C4(C)C)cnc21` (single isomer, unassigned) [Example 229], which EC50 is on record?
Its EC50 is 0.014 µM.

For `COCC1(O)CCN(c2ccc3c(c2)C(C)(C)c2cc(-c4cnc5n4CCCC5OC)c4c(c2N3)C(=O)NC4)CC1` (single isomer, unassigned) [Example 231], which EC50 is on record?
The EC50 was 0.0105 µM.

With `CC1(C)c2cc(N3CCOCC3)ccc2Nc2c1cc(-c1cnc3n1CCC(O)C3)c1c2C(=O)NC1` (single isomer, unassigned) [Example 241] as the compound, how does the EC50 read?
Its EC50 is 0.01 µM.

`CC1(C)c2cc(N3CCOCC3)ccc2Nc2c1cc(-c1cnc3n1CCC(C#N)C3)c1c2C(=O)NC1` (single isomer, unassigned) [Example 242] was tested. Which EC50 did it give?
The EC50 was 0.0085 µM.

`COC1CCCn2c(-c3cc4c(c5c3CNC5=O)Nc3ccc(N5CCC(O)CC5)cc3C4(C)C)cnc21` (single isomer, unassigned) [Example 243] was tested. Which EC50 did it give?
Its EC50 is 0.013 µM.

`COc1nccn2c(-c3cc4c(c5c3CNC5=O)Nc3ccc(N5CCOCC5C)cc3C4(C)C)cnc12` (single isomer, unassigned) [Example 244] was tested. Which EC50 did it give?
Its EC50 is 0.0098 µM.

How did the EC50 turn out when `COC1CCCn2c(-c3nc4c(c5c3CNC5=O)Nc3ccc(N5CCOCC5)cc3C4(C)C)cnc21` (single isomer, unassigned) [Example 279] was run?
Its EC50 is 0.17 µM.

For `CCOC1CCCn2c(-c3cc4c(c5c3CCNC5=O)Nc3ccc(N5CCOCC5)cc3C4(C)C)cnc21` (single isomer, unassigned) [Example 281], which EC50 is on record?
Its EC50 is 0.018 µM.
